Measurements published in US20230255966A1, “A COMBINATION OF A CBP/P300 BROMODOMAIN INHIBITOR AND AN EGFR INHIBITOR FOR USE IN TREATING EGFR-MUTANT NSCLC” (TOLREMO THERAPEUTICS AG, priority 2020, published 2023).
Where two headings read alike, the source gives them in different places.

Assays:
HCC827 cells [1] = assay: Cell counting by nuclear fluorescent staining (Hoechst33342); type: cell-based; details: for Effect on cell proliferation as single agent: absence of EGFR inhibitor (FIG. 3 left); for Anti-proliferative activity / re-growth in presence of Gefitinib: in presence of 300 nM Gefitinib (FIG. 3)
Description: Several plates were seeded, as for each time point of cell counting one plate was fixed and stained for analysis. […] Cell cultivation was continued until time of fixation and analysis for each plate. For extended time-points, medium and drugs were replenished twice weekly.
At the given time plates were washed 3 times with PBS and cells fixed with 80 μl 4% PFA for 10 min, RT. After 3 wash steps with PBS cells were stained with 10 μg/ml Hoechst33342 (Thermo Scientific H12492) in 100 μl PBS for 2 h, RT, dark. After 3× PBS washing-steps, Hoechst33342 signals were acquired on in an automated imaging mode using a Zeiss Apotome with motorized X/Y stage and a 5× objective. Image analysis and determination of Hoechst33342 spots (nuclei) was done using ImageJ. Number of nuclei was plotted as function of time using GraphPad Prism.

HCC827 cells [2] = assay: Gene expression analysis (qPCR of ALPP and HOPX); type: cell-based; details: HCC827, 1 μM CBP/p300 inhibitor in presence of Gefitinib, 24 h
Description: (§1) Equal amount of cDNA was then subjected to qPCR analysis using the Kapa SYBR fast kit (KK4611) in a 384 well format in a Roche Light Cycler 480. Gene expression of genes was evaluated by subtraction of housekeeping gene CT-values (b-Actin) from CT of the genes of interest, and by calculating the ΔΔCT by subtracting the DMSO control value from sample of interest to finally calculate fold change differences of treated versus control treated sample.
(§2) Data is from 2 independent experiments with qPCRs in duplicate (mean±SEM) (FIG. 1C-D).

NCI-H1975 cells [3] = assay: Gene expression analysis (qPCR of ALPP and HOPX); type: cell-based; details: 24 h; for EGFR inhibitor induced gene expression (ALPP, HOPX): NCI-H1975, 1 μM CBP/p300 inhibitor in presence of 20 nM osimertinib
Description: as §1, §2

HCC827 cells [4] = assay: Label-free determination of cell proliferation (CELIGO); type: cell-based; details: for Development of drug resistance / re-growth: HCC827, combined with 100 nM osimertinib; for Development of drug resistance / re-growth / Effect on cell proliferation on their own: 21 days (FIG. 9); for Effect on cell proliferation on their own: HCC827, single agent (1 μM Compound A, 0.2 μM Compound C, 0.2 μM CCS1477, 1 μM FT-6876, 0.2 μM GNE-781)
NCI-H1975 cells [5] = assay: as above; type: cell-based
HCC4006 cells = assay: as above; details: for Development of drug resistance / re-growth: HCC4006, combined with 100 nM osimertinib; for Development of drug resistance / re-growth / Effect on cell proliferation on their own: 21 days (FIG. 10); for Effect on cell proliferation on their own: HCC4006, single agent (1 μM Compound A, 0.2 μM Compound C, 0.2 μM CCS1477, 1 μM FT-6876, 0.2 μM GNE-781)
Description: 2000 HCC4006 (ATCC; CRL2871) were seeded into 96 well plates (Greiner BioOne 655090) one day prior to drug treatment in RPMI medium containing 10% FCS and 2 mM L-Glutamine. The next day wells were imaged label-free using brightfield imaging on a CELIGO Image Cytometer to determine the initial cell number. Subsequently cells were treated with either DMSO, with single drugs (osimertinib and each of the CBP/p300 bromodomain inhibitors) or drug combinations of 100 nM osimertinib and one CBP/p300 bromodomain inhibitor with drug concentrations given below. Plates were regularly imaged over weeks using brightfield mode (CELIGO Imaging Cytometer) to track cell proliferation in each well over time. Growth medium and treatments were replenished twice weekly. […] Cell numbers were determined using CELIGO software's built-in “direct cell counting” analysis tool in the brightfield mode.

NCI-H1975 xenografts = assay: NCI-H1975 xenograft tumor growth; type: in vivo, NMRI-Nude mice; details: 2 mg/kg osimertinib alone
Description: Tumor volume was measured using a manual caliper two to three times a week. The tumor volume was calculated using the formula: lager tumor diameter x square of the smaller tumor diameter divided by 2. Based on a linear fit of the mean tumor volumes the slopes of the curves were compared by regression analysis (two-tailed).
(§3) The response was determined by comparing tumor volume change at time t to its baseline: % tumor volume change=ΔVolt=100%×((Vt−Vinitial)/Vinitial). The Best Response was the minimum value of ΔVolt for t≥10 d. For each time t, the average of ΔVolt from t=0 to t was also calculated. The BestAvgResponse is defined as the minimum value of this average for t≥10 d. This metric captures a combination of speed, strength and durability of response into a single value. […] Mice that were sacrificed because of an adverse event before they had completed 14 d on trial were removed from the data set.
as §3, with “ΔVolt for t≥6 d. For” for “ΔVolt for t≥10 d. For”

[6] = NCI-H1975, 50 nM osimertinib alone (FIG. 5)

## CC(=O)N1C[C@H](c2nc(Nc3ccc4[nH]ncc4c3)cc(-c3cccnc3)n2)CC[C@@H]1C [Compound 00030]
HCC827 cells [1]
  Effect on cell proliferation as single agent: absence of an anti-proliferative effect
  Anti-proliferative activity / re-growth in presence of Gefitinib: potentiate the effect of the EGFR inhibitor

## CNC(=O)Nc1ccc2c(c1)CC[C@@]21OC(=O)N(CC(=O)N(Cc2ccc(F)cc2)[C@@H](C)C(F)(F)F)C1=O [Compound A-485]
HCC827 cells [1]
  Effect on cell proliferation as single agent: affect cell proliferation
HCC827 cells [2]
  EGFR inhibitor induced gene expression (ALPP, HOPX): reverse EGFR inhibitor induced gene expression
NCI-H1975 cells [3]
  EGFR inhibitor induced gene expression (ALPP, HOPX): reverse EGFR inhibitor induced gene expression

## COc1cncc(-c2cc(Nc3cccc(F)c3)nc([C@@H]3CC[C@H](C)N(C(C)=O)C3)n2)c1 [Compound A]
HCC827 cells [1]; in combination with 20 nM Gefitinib (FIG. 2A)
  Re-growth under continuous Gefitinib exposure: Re-growth is inhibited
HCC827 cells [1]
  Anti-proliferative activity / re-growth in presence of Gefitinib: potentiate the effect of the EGFR inhibitor
HCC827 cells [2]
  EGFR inhibitor induced gene expression (ALPP, HOPX): reverse EGFR inhibitor induced gene expression
NCI-H1975 cells [3]
  EGFR inhibitor induced gene expression (ALPP, HOPX): reverse EGFR inhibitor induced gene expression
HCC827 cells [4]; HCC827, 300 nM Gefitinib + 1 μM Compound A, >22 days (FIG. 4)
  Re-growth in long-term cultures: significantly delays or completely prevents re-grow
HCC827 cells [4]; HCC827, 1 μM Compound A alone (FIG. 4)
  Effect on cell numbers on its own: weak/no effect on cell numbers
HCC827 cells [4]
  Development of drug resistance / re-growth: prevent the development of drug resistance
NCI-H1975 cells [5]; NCI-H1975, 50 nM osimertinib with 2.0, 0.5 or 0.125 μM co-treatment (FIG. 5)
  Growth long-term: delayed
NCI-H1975 cells [5]; NCI-H1975, 2 μM single agent (FIG. 5)
  Effect on cell numbers on their own: no/weak effect on cell numbers

## COC(=O)N1c2ccc3c(nc(Cc4ccccc4)n3[C@H]3CCC[C@H](C(=O)O)C3)c2CC[C@@H]1C [FT-6876]
HCC4006 cells
  Development of drug resistance / re-growth: prevent the development of drug resistance
  Effect on cell proliferation on their own: do not affect cell proliferation
HCC827 cells [4]
  Development of drug resistance / re-growth: prevent the development of drug resistance
  Effect on cell proliferation on their own: do not affect cell proliferation

## CNC(=O)N1CCc2c(c(N3CCCc4cc(-c5cnn(C)c5)c(C(F)F)cc43)nn2C2CCOCC2)C1 [GNE-781]
HCC4006 cells
  Development of drug resistance / re-growth: prevent the development of drug resistance
  Effect on cell proliferation on their own: do not affect cell proliferation
HCC827 cells [4]
  Development of drug resistance / re-growth: prevent the development of drug resistance
  Effect on cell proliferation on their own: do not affect cell proliferation

## COc1cc2ncnc(Nc3ccc(F)c(Cl)c3)c2cc1OCCCN1CCOCC1 [Gefitinib]
HCC4006 cells; HCC4006, 300 nM Gefitinib alone (FIG. 8)
  Cell proliferation, initial: initially completely blocks cell proliferation
HCC4006 cells; HCC4006, 300 nM Gefitinib only (FIG. 8)
  Re-growth in long-term cultures: HCC4006 cells re-grow if treated with Gefitinib only

## O=C1[C@H](Cc2ccc(O)cc2)N2C(=O)CCN(C(=O)NCc3ccccc3)[C@H]2CN1Cc1cccc2ccccc12 [ICG-001]
HCC827 cells [2]
  EGFR inhibitor induced gene expression (ALPP, HOPX): does not blunt EGFR-induced gene expression
NCI-H1975 cells [3]
  EGFR inhibitor induced gene expression (ALPP, HOPX): does not blunt EGFR-induced gene expression

## COc1ccc(CCc2nc3cc(-c4c(C)noc4C)ccc3n2C[C@H](C)N2CCOCC2)cc1Cl [SGC-CBP30]
HCC827 cells [1]
  Effect on cell proliferation as single agent: do not affect cell proliferation
  Anti-proliferative activity / re-growth in presence of Gefitinib: potentiate the effect of the EGFR inhibitor

## C=CC(=O)Nc1cc(Nc2nccc(-c3cn(C)c4ccccc34)n2)c(OC)cc1N(C)CCN(C)C [osimertinib]
HCC4006 cells; HCC4006, 100 nM osimertinib alone (FIG. 10)
  Cell proliferation, initial: initially blocks cell proliferation
HCC4006 cells; HCC4006, 100 nM osimertinib only (FIG. 10)
  Re-growth in long-term cultures: HCC4006 cells re-grow if treated with osimertinib only
NCI-H1975 cells [3]; NCI-H1975, EGFR inhibitor (20 nM osimertinib) alone
  ALPP and HOPX gene expression: upregulation of example genes ALPP and HOPX
NCI-H1975 xenografts
  Slope of linear regression fit of mean tumor volumes over time: +6.4
HCC827 cells [4]
  Cell proliferation, initial: initially blocks cell proliferation
  Re-growth in long-term cultures: HCC827 cells re-grow if treated with osimertinib only
NCI-H1975 cells [5]; [6]
  Cell proliferation, initial: initially blocks cell proliferation
  Growth long-term: cells continue growing with a slow rate
